According to ChEMBL document CHEMBL1909046, “DrugMatrix in vitro pharmacology data”:

What was measured:
[1] = target: Melanocortin receptor 5 (Homo sapiens, UniProt P33032); type: cell membranes, HEK293, Membrane; settings: for Ki: read-out: Ki; as to all read-outs here: in other assays of this panel Not Active means under 50% inhibition at 10 µM
[2] = target: T1, Amine oxidase [flavin-containing] A (Homo sapiens, UniProt P21397); assay: DRUGMATRIX: Monoamine Oxidase MAO-A enzyme inhibition (substrate: Kynuramine); set-up: species or system BTI-TN-5B1-4; settings: Not Active = under 50% inhibition at 10 µM
T1 sequence (P21397 whole entry): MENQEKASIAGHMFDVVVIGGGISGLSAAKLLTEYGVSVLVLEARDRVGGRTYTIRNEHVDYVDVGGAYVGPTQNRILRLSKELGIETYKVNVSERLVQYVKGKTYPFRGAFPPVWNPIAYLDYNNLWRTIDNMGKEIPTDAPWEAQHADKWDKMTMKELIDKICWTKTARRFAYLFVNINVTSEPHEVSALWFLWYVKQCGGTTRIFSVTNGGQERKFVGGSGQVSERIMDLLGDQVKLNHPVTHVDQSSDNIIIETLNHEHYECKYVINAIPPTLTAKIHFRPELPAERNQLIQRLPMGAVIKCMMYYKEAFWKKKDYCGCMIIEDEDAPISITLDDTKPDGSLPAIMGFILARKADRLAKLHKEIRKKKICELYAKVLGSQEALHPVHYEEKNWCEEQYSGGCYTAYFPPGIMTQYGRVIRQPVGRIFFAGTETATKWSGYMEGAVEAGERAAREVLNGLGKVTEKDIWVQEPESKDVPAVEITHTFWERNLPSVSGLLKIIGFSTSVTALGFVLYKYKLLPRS

[3] = target: Melanocortin receptor 3 (Homo sapiens, UniProt P41968); type: cell membranes, HEK293, Membrane; also: in other assays of this panel Not Active means under 50% inhibition at 10 µM
Sequence of Melanocortin receptor 3 (P41968 whole entry): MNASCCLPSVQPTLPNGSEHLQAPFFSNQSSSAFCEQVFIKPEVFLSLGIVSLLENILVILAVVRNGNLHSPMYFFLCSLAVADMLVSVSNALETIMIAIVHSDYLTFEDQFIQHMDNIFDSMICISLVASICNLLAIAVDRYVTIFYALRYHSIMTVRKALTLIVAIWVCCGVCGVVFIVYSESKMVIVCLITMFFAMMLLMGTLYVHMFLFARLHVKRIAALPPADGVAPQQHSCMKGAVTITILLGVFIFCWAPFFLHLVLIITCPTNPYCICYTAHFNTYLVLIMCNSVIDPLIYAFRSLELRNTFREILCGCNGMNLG

[4] = target: C-C chemokine receptor type 5 (Homo sapiens, UniProt P51681); type: cell membranes, Membrane; settings: hek293; also: in other assays of this panel Not Active means under 50% inhibition at 10 µM
Sequence of C-C chemokine receptor type 5 (P51681 whole entry): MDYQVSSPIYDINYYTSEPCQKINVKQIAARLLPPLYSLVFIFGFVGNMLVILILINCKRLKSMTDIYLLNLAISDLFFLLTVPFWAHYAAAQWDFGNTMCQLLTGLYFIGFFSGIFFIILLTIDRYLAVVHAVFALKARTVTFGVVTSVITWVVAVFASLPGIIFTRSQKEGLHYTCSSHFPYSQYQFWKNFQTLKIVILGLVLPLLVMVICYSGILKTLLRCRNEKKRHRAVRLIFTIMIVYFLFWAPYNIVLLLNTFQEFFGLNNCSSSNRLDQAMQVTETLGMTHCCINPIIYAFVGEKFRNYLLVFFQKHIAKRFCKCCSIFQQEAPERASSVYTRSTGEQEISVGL

[5] = target: Sodium-dependent noradrenaline transporter (Homo sapiens, UniProt P23975); assay: DRUGMATRIX: Norepinephrine Transporter radioligand binding (ligand: [125I] RTI-55); type: cell membranes, MDCK, Membrane; settings: Not Active = under 50% inhibition at 10 µM; for Ki: read-out: Ki
Sequence of Sodium-dependent noradrenaline transporter (P23975 whole entry): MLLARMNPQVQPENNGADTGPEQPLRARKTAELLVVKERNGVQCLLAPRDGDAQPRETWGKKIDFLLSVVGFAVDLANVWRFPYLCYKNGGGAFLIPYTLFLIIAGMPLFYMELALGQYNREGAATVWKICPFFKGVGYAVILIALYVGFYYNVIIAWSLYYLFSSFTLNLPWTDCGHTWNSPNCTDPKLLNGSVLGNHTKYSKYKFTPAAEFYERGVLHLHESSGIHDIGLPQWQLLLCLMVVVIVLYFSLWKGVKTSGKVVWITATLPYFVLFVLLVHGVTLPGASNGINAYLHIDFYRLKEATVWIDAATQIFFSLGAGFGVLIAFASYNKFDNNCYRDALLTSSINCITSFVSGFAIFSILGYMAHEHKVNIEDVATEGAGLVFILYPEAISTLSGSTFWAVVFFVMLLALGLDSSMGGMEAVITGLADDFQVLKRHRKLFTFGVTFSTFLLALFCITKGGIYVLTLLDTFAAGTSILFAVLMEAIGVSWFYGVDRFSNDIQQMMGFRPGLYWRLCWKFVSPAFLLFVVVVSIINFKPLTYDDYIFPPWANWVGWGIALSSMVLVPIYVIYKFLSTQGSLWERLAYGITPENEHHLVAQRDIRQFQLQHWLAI

[6] = DRUGMATRIX: GABAA, Muscimol, Central radioligand binding (ligand: [3H] Muscimol); type: cell membranes, Rattus norvegicus, Wistar, Brain, Membrane; settings: Not Active = under 50% inhibition at 10 µM

Sequence of Melanocortin receptor 5 (P33032 whole entry): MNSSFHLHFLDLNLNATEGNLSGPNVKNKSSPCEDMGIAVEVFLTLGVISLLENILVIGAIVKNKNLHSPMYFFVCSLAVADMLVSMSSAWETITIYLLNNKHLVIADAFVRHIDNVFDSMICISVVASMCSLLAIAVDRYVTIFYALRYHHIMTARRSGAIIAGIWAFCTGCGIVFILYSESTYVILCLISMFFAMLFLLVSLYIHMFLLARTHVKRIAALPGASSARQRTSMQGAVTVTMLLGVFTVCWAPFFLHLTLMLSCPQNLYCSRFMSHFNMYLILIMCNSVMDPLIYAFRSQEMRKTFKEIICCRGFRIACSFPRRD

SMILES | IC50 ([1]; hek293) | IC50 ([2]; bti-tn-5b1-4) | IC50 ([3]; hek293) | IC50 [4] | IC50 ([5]; mdck) | IC50 [6] | Ki [6] | IC50 ([1]; read-out: IC50) [µM] | Ki [1] [µM] | IC50 ([2]; read-out: IC50) [µM] | IC50 ([5]; read-out: IC50) [µM] | Ki [5] [µM] | IC50 ([3]; read-out: IC50) [µM] | Ki ([3]; read-out: Ki) [µM]
CC(C)(C)NC(=O)[C@@H]1C[C@@H]2CCCC[C@@H]2CN1C[C@@H](O)[C@H](Cc1ccccc1)NC(=O)[C@H](CC(N)=O)NC(=O)c1ccc2ccccc2n1 | Not Active | Not Active | Not Active | Not Active | Not Active | Not Active | Not Active |  |  |  |  |  |  | 
CC(=O)[C@@]1(O)CC[C@H]2[C@@H]3C[C@H](C)C4=CC(=O)CC[C@]4(C)[C@H]3CC[C@@]21C | Not Active | Not Active | Not Active | Not Active | Not Active | Not Active | Not Active |  |  |  |  |  |  | 
N[C@@H](Cc1ccc(N(CCCl)CCCl)cc1)C(=O)O | Not Active | Not Active | Not Active | Not Active | Not Active | Not Active | Not Active |  |  |  |  |  |  | 
CCCCc1oc2ccccc2c1C(=O)c1cc(I)c(OCCN(CC)CC)c(I)c1 [AMIODARONE] |  | Not Active |  | Not Active |  |  |  | 9.5 | 8.91 |  |  |  |  | 
OCCN(CCO)c1nc(N2CCCCC2)c2nc(N(CCO)CCO)nc(N3CCCCC3)c2n1 [DIPYRIDAMOLE] | Not Active | Not Active | Not Active | Not Active | Not Active | Not Active | Not Active |  |  |  |  |  |  | 
Cc1oncc1C(=O)Nc1ccc(C(F)(F)F)cc1 [LEFLUNOMIDE] | Not Active |  | Not Active | Not Active |  | Not Active | Not Active |  |  | 20.7 |  |  |  | 
c1ccc([C@H]2CN3CCSC3=N2)cc1 [LEVAMISOLE] | Not Active | Not Active | Not Active | Not Active | Not Active | Not Active | Not Active |  |  |  |  |  |  | 
N[C@@H](Cc1ccc(O)c(O)c1)C(=O)O [LEVODOPA] | Not Active | Not Active | Not Active | Not Active | Not Active | Not Active | Not Active |  |  |  |  |  |  | 
N[C@@H](Cc1cc(I)c(Oc2ccc(O)c(I)c2)c(I)c1)C(=O)O [LIOTHYRONINE] | Not Active | Not Active | Not Active | Not Active | Not Active |  |  |  |  |  |  |  |  | 
O=NN(CCCl)C(=O)NC1CCCCC1 [LOMUSTINE] | Not Active | Not Active | Not Active | Not Active | Not Active | Not Active | Not Active |  |  |  |  |  |  | 
CCOC(=O)N1CCC(=C2c3ccc(Cl)cc3CCc3cccnc32)CC1 [LORATADINE] | Not Active | Not Active | Not Active | Not Active | Not Active | Not Active | Not Active |  |  |  |  |  |  | 
Cn1ccnc1S [METHIMAZOLE] | Not Active | Not Active | Not Active | Not Active | Not Active | Not Active | Not Active |  |  |  |  |  |  | 
CC[C@@H](CO)NC(=O)[C@@H]1C=C2c3cccc4[nH]cc(c34)C[C@H]2N(C)C1 [METHYLERGONOVINE] | Not Active | Not Active | Not Active | Not Active | Not Active | Not Active | Not Active |  |  |  |  |  |  | 
COc1nc(C)nc(Cl)c1NC1=NCCN1 [MOXONIDINE] | Not Active | Not Active | Not Active | Not Active | Not Active | Not Active | Not Active |  |  |  |  |  |  | 
COc1c(C)c2c(c(O)c1C/C=C(\C)CCC(=O)O)C(=O)OC2 [MYCOPHENOLIC ACID] | Not Active | Not Active | Not Active | Not Active | Not Active | Not Active | Not Active |  |  |  |  |  |  | 
O=c1ncn2nc(Sc3ccc(F)cc3F)ccc2c1-c1c(Cl)cccc1Cl [NEFLAMAPIMOD] | Not Active | Not Active | Not Active | Not Active |  | Not Active | Not Active |  |  |  | 20.4 | 20.2 |  | 
CN1CCN(CCCN2c3ccccc3Sc3ccc(Cl)cc32)CC1 [PROCHLORPERAZINE] | Not Active | Not Active | Not Active | Not Active |  |  |  |  |  |  |  |  |  | 

SMILES | IC50 ([1]; hek293) | IC50 ([2]; bti-tn-5b1-4) | IC50 ([3]; hek293) | IC50 [4] | IC50 ([5]; mdck) | IC50 [6] | Ki [6] | IC50 ([1]; read-out: IC50) [µM] | Ki [1] [µM] | IC50 ([2]; read-out: IC50) [µM] | IC50 ([5]; read-out: IC50) [µM] | Ki [5] [µM] | IC50 ([3]; read-out: IC50) [µM] | Ki ([3]; read-out: Ki) [µM]
CO[C@H]1/C=C/O[C@@]2(C)Oc3c(C)c(O)c4c(O)c(c(/C=N/N5CCN(C)CC5)c(O)c4c3C2=O)NC(=O)/C(C)=C\C=C\[C@H](C)[C@H](O)[C@@H](C)[C@@H](O)[C@@H](C)[C@H](OC(C)=O)[C@@H]1C [RIFAMPIN] | Not Active | Not Active | Not Active | Not Active | Not Active | Not Active | Not Active |  |  |  |  |  |  | 
Nc1nc2ccc(OC(F)(F)F)cc2s1 [RILUZOLE] | Not Active | Not Active | Not Active | Not Active |  | Not Active | Not Active |  |  |  | 1.73 | 1.72 |  | 
Cc1nc2n(c(=O)c1CCN1CCC(c3noc4cc(F)ccc34)CC1)CCCC2 [RISPERIDONE] | Not Active | Not Active | Not Active | Not Active | Not Active |  |  |  |  |  |  |  |  | 
C=CCC1(C(C)CCC)C(=O)NC(=O)NC1=O (stereo not given) [SECOBARBITAL] | Not Active | Not Active | Not Active | Not Active | Not Active | Not Active | Not Active |  |  |  |  |  |  | 
C[C@@H]1CN(c2c(F)c(N)c3c(=O)c(C(=O)O)cn(C4CC4)c3c2F)C[C@H](C)N1 [SPARFLOXACIN] | Not Active | Not Active | Not Active | Not Active | Not Active | Not Active | Not Active |  |  |  |  |  |  | 
Cc1noc(NS(=O)(=O)c2ccc(N)cc2)c1C [SULFISOXAZOLE] | Not Active | Not Active | Not Active | Not Active | Not Active | Not Active | Not Active |  |  |  |  |  |  | 
CSc1ccc(/C=C2/C(C)=C(CC(=O)O)c3cc(F)ccc32)cc1 [SULINDAC SULFIDE] | Not Active | Not Active | Not Active | Not Active | Not Active | Not Active | Not Active |  |  |  |  |  |  | 
Nc1c2c(nc3ccccc13)CCCC2 [TACRINE] | Not Active | Not Active | Not Active | Not Active |  | Not Active | Not Active |  |  |  | 0.517 | 0.513 |  | 
CC/C(=C(\c1ccccc1)c1ccc(OCCN(C)C)cc1)c1ccccc1 [TAMOXIFEN] |  | Not Active |  | Not Active |  |  |  | 26.5 | 24.9 |  | 1.47 | 1.46 | 19.9 | 17.3
CC(C)N1CCN(c2ccc(OCC3COC(Cn4cncn4)(c4ccc(Cl)cc4Cl)O3)cc2)CC1 (stereo not given) [TERCONAZOLE] | Not Active | Not Active | Not Active | Not Active |  | Not Active | Not Active |  |  |  |  |  |  | 
Nc1nc2nc[nH]c2c(=S)[nH]1 [THIOGUANINE] | Not Active | Not Active | Not Active | Not Active | Not Active | Not Active | Not Active |  |  |  |  |  |  | 
Cc1cccc(N(C)C(=S)Oc2ccc3ccccc3c2)c1 [TOLNAFTATE] | Not Active | Not Active | Not Active | Not Active | Not Active | Not Active | Not Active |  |  |  |  |  |  | 
NC[C@H]1CC[C@H](C(=O)O)CC1 [TRANEXAMIC ACID] | Not Active | Not Active | Not Active | Not Active | Not Active | Not Active | Not Active |  |  |  |  |  |  | 
CC1(C)O[C@@H]2C[C@H]3[C@@H]4CCC5=CC(=O)C=C[C@]5(C)[C@@]4(F)[C@@H](O)C[C@]3(C)[C@]2(C(=O)CO)O1 [TRIAMCINOLONE ACETONIDE] | Not Active | Not Active | Not Active | Not Active | Not Active | Not Active | Not Active |  |  |  |  |  |  | 
NS(=O)(=O)c1cc2c(cc1Cl)NC(C(Cl)Cl)NS2(=O)=O (stereo not given) [TRICHLORMETHIAZIDE] | Not Active | Not Active | Not Active | Not Active | Not Active | Not Active | Not Active |  |  |  |  |  |  | 
Cc1c(C)c2c(c(C)c1O)CCC(C)(COc1ccc(CC3SC(=O)NC3=O)cc1)O2 (stereo not given) [TROGLITAZONE] | Not Active | Not Active | Not Active | Not Active | Not Active | Not Active | Not Active |  |  |  |  |  |  | 
N[C@@H]1[C@H]2CN(c3nc4c(cc3F)c(=O)c(C(=O)O)cn4-c3ccc(F)cc3F)C[C@@H]12 [TROVAFLOXACIN] | Not Active | Not Active | Not Active | Not Active | Not Active | Not Active | Not Active |  |  |  |  |  |  | 
